# From patent US20090081322A1, “Process for the preparation of antioxidant conserve from Indian curry leaves (MURRAYA KOENIGII SPRENG.)” (Council of Scientific and Industrial Research, priority 2002, published 2009)
# Assay: Antioxidant assay by β-carotene-linoleate model system
# Assay type: biochemical
# Conditions: 100 ppm concentration; β-carotene bleaching, 90 min incubation at 50° C.
# Experimental: The antioxidant activity of curry leaves extract was evaluated by the β-carotene-linoleate model (Jayaprakasha and Jaganmohan Rao, Z. Naturforsch. 55C, 1018-1022, 2000). 0.2 mg of the β-carotene in 0.5 ml of chloroform, 20 mg of linoleic acid and 200 mg of Tween-40 (polyoxyethylene sorbitan monopalmitate) were mixed together. The chloroform was removed at 40° C. under vacuum using a rotary evaporator. The resulting solution was immediately diluted with 10 ml of triple-distilled water and the emulsion was mixed well for 1 min. The emulsion was further diluted with 40 ml of oxygenated water before use. 4 ml aliquots of this mixture were transferred into different tubes containing 0.2 ml of samples at 100 ppm concentrations in ethanol, butylated hydroxyanisole (BHA) was used for comparative purposes. A control containing 0.2 ml of ethanol and 4 ml of the above mixture was prepared. Optical density (OD) at 470 nm were taken for the all extracts and pure compounds immediately (t=0) at 15 min intervals for 1.5 h (t=90). […] The antioxidant activities (AA) of the samples were evaluated in terms of bleaching the β-carotene using the following formula. AA=100[1−(Ao−At)/(A^oo−A^ot)] where Ao and A^oo are the OD measured at zero time of incubation for test sample and control, respectively. At and A^ot are the OD measured in the test sample and control, respectively, after incubation for 90 min.
structure (smiles),measurement,value
"COc1ccc(O)c(C(C)(C)C)c1 [BHA, butylated hydroxy anisole]",antioxidant activity,90.2%
